According to patent US7329485B2, “Methods for detecting compounds that interfere with protein aggregation utilizing an in vitro fluorescence-based assay” (priority 2005, dated 2008):
“Also recorded” adds a separate entry of the source.

What was measured:
HBV core protein = HBV core protein (Hepatitis B virus genotype D subtype adw, UniProt P03147); design: concentration leading to formation of aberrant particles: unit not given here; conditions: Stray et al., 2005, cited from earlier work
HBV capsid (C150BO) [1] = biological target: T1, HBV capsid (C150BO) (Hepatitis B virus genotype D subtype adw, UniProt P03147, C107A/C48A/C61A); experiment: BODIPY-FL fluorescence quenching assay of C150BO capsid assembly, compared to size-exclusion chromatography; type: biochemical, HBV strain adyw; conditions: for effect on C150BO assembly (fluorescence, size-exclusion chromatography): 3 μM C150BO, 21° C.; for effect on assembly and quenching in mock assembly reactions: mock-assembled, low salt / no NaCl, time not stated; for effect on fluorescence of mock-assembled C150BO dimer (intrinsic quenching control): early times (up to 2 h)
T1 construct: For fluorescent labeling, the mutant C150 (Zlotnick et al., 1997); made in house; host or cells: E. coli
Experimental: Mutagenesis: For simplicity of chemical labeling, the cysteine residues (C48, C61 and C107) in the assembly domain of HBV strain adyw core protein (amino acids 1-149 (Zlotnick et al., 1996), core protein 149) were mutated to alanine, inserting a unique cysteine residue at the C terminus (C150). Mutagenesis was performed using QuikChange Multi (Stratagene). Mutagenic primers are described in Table III (IDT DNA technologies). Mutations were confirmed by dye terminator dideoxy sequencing (DNA Sequencing Core, Oklahoma Medical Research Foundation). The resulting mutant protein is referred to herein as C150.
Protein expression, purification and dye labeling: Wild-type and mutant truncated HBV capsid protein dimers were expressed and purified from E. coli as described in Zlotnick et al., 1996 and Zlotnick et al., 2002. Protein was quantified by absorbance at 280 nm (ε=60,900 M^−1 cm^−1). DTT levels were maintained at 5 mM throughout purification and storage. Immediately before derivatization, C150 protein was removed from storage buffer by chromatography over a G25 PD10 desalting column (Amersham Biosciences) equilibrated with ice-cold 50 mM HEPES pH 7.5 without DTT. Peak fractions were reacted with BODIPY-FL maleimide (Invitrogen/Molecular Probes) on ice at a final concentration of 4 mM from a 20 mM BODIPY-FL stock in DMSO. Most complete labeling was achieved by overnight reaction, although significant labeling could be achieved by reaction for as little as 10 min. Unreacted dye was removed by separation over a G25 PD10 desalting column equilibrated in ice-cold 50 mM HEPES, pH 7.5. The degree of dye labeling was determined using absorbance at 504 nm (ε504=73,000 M^−1 cm^−1, ε280=1,300 M^−1 cm^−1). The extinction coefficient was calculated by determining the degree of labeling of BODIPY-FL-labeled C150 preps by MALDI-TOF mass spectrometry. Yield of BODIPY-FL-labeled C150 was typically on the order of 1.9 moles of dye per mole of dimer. Labeling of C150 with fluorescein maleimide was compared to BODIPY-FL; BODIPY-FL conjugates gave a much stronger assembly-dependent change in fluorescence than did fluorescein.
Fluorescence and light scattering: Assembly was monitored by fluorescence using a SPEX Fluoromax-2 fluorometer (Horiba Jobin Yvon), using a 0.3-cm path-length cuvette (Hellma) or in black 96-well COSTAR fluorescence microtiter plates (Corning) using a MicroMax adaptor. Assembly reactions were performed at 21° C. Assembly was initiated manually by mixing core protein in 50 mM HEPES, pH 7.5, with buffered NaCl (Sigma) as appropriate. Fluorescence was excited at 504 nm and emission was measured at 509 nm (1-nm band pass for each). For static measurements, all measurements were recorded in triplicate. Qualitatively similar results were obtained using excitation at 495 nm and emission at 512 nm (commonly used for fluorescein fluorescence). Measuring fluorescence of the same reactions in either a cuvette or a 96-well fluorescence microtiter plate gave identical quenching values.
Size-exclusion chromatography: Assembly reactions were examined by SEC on a Superose 6 10/30 column (Amersham Biosciences) mounted on a Shimadzu high-performance liquid chromatography system equipped with an auto injection module (Shimadzu). The column was equilibrated with 50 mM HEPES, pH 7.5, 50 mM NaCl. Recovered protein was assigned either to the void (6.5-7.0 ml), capsid (7.0-8.3 ml), dimer (15-16.5 ml) or intermediate elution (8.3-15 ml).

HBV capsid (C150BO) [2] = biological target: T1, HBV capsid (C150BO); experiment: Example 2 in vitro assembly reactions with labeled capsid polypeptide C150BO, plate reader; type: biochemical; conditions: % assembly at 1 hour (FIG. 7); conditions induced 25% (±5%) assembly in the absence of drugs
Experimental: The assays were carried out as described in Example 1, except as described herein after. Samples were read in 3 minute intervals for one hour and again at 24 hours using a Tecan filter-based plate reader with a standard fluorescein filter set.
FIG. 7 illustrates a typical experiment comparing different compounds, including some heteroaryldihydropyrimidine (HAP) derivatives. In this experiment, assembly conditions induced 25% (±5%) assembly in the absence of drugs.

T1 sequence (P03147 1-150, looked up, stated change not applied): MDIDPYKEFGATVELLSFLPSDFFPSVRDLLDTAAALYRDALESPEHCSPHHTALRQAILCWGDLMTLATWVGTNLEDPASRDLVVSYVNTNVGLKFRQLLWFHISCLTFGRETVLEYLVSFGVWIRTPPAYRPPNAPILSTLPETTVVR
Sequence of HBV core protein (P03147 1-149): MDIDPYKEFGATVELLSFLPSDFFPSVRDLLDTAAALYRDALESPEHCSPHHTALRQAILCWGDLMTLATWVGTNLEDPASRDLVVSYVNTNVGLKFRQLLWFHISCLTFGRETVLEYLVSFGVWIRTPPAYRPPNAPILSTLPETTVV

SMILES	concentration leading to formation of aberrant particles (HBV core protein; >1 HAP-1 molecule per dimer)	effect on HBV core protein assembly in vitro (HBV core protein; broad range of concentrations)	effect on C150BO assembly (fluorescence, size-exclusion chromatography) (HBV capsid (C150BO) [1]; 150 mM NaCl, 24 h (FIG. 6a))	effect on assembly and quenching in mock assembly reactions (HBV capsid (C150BO) [1])	quenching and assembly in mock-assembled controls (HBV capsid (C150BO) [1]; without NaCl, after 24 h)	effect on fluorescence of mock-assembled C150BO dimer (intrinsic quenching control) (HBV capsid (C150BO) [1]; without NaCl)	effect on % assembly of HBV capsid by fluorescence (HBV capsid (C150BO) [2])	effect on C150BO assembly (fluorescence, size-exclusion chromatography) (HBV capsid (C150BO) [1]; 0.5 M NaCl, 24 h (FIG. 6b))
COC(=O)C1=C(C)NC(c2ccccn2)=NC1c1ccc(F)cc1Cl (stereo not shown) [HAP-1]	≥ 10	enhanced the rate and extent of HBV core protein assembly	enhanced assembly, leading to enhanced quenching; also recorded: substantially increased both the rate and the extent of C150BO assembly	able to induce slow C150BO assembly	showed both BODIPY-FL quenching and assembly by SEC	No reduction in fluorescence; also recorded: no effect on fluorescence		
NC(N)=O [urea]				affected neither assembly nor quenching		No reduction in fluorescence	only showed marginal assembly inhibition	inhibited assembly; also recorded: A decrease in assembly by SEC and an increase in fluorescence
